Measurements reported in patent publication US8258306B2, “Glycine transporter-1 inhibitors” (Amgen Inc., priority 2007, dated 2012).
Where a name gives a salt, the structure may show the parent alone.

These molecules were tested against T1, human glycine transporter type 1 (Gly-T1) (Homo sapiens, UniProt P48067) (assay: Glycine Transporter 1 (GlyT1) Uptake Assay, in vitro). Details: inhibition of [14C] glycine uptake (5 μM) in JAR cells endogenously expressing GlyT1; approximate values.
T1 construct: JAR) cells endogenously expressing human glycine transporter type 1 (Gly-T1); endogenous in cells; host or cells: JAR human placental choriocarcinoma cells
T1 sequence (P48067 1-706): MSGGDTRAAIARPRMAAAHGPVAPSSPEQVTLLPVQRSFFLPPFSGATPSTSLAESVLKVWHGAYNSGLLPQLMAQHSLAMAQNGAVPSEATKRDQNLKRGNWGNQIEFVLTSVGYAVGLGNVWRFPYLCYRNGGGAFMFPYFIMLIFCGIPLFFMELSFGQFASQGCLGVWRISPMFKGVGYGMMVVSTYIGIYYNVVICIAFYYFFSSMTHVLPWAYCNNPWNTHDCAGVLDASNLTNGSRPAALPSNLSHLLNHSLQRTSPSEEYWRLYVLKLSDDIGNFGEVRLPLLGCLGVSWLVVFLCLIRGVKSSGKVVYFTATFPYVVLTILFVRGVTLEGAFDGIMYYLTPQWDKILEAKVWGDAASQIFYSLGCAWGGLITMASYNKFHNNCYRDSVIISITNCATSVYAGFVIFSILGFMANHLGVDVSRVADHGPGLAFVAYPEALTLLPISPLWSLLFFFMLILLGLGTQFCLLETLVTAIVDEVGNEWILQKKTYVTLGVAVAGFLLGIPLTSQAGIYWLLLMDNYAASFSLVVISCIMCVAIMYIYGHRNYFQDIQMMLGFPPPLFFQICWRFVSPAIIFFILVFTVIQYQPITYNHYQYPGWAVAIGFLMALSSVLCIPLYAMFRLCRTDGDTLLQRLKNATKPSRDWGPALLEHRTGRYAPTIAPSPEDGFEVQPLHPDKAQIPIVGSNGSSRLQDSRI
Format: cell-based
Method: This cell-based assay measures the ability of test compounds to inhibit the uptake of glycine by the glycine transporter type 1. Human placental choriocarcinoma (JAR) cells endogenously expressing human glycine transporter type 1 (Gly-T1) were used for this assay. For uptake assays, JAR cells were cultured in 96-well cytostar T scintillating microplates (Amersham Biosciences) in RPMI 1640 medium containing 10% fetal bovine serum in the presence of penicillin (100 μg/ml) and streptomycin (100 μg/ml). Cells were plated at a density of 4×10^4 cells/well and grown at 37° C. in a humidified atmosphere of 5% CO2 for 24 h.
Culture medium was removed from Cytostar plate and JAR cells were incubated with 30 μl of Uptake buffer (120 mM NaCl, 2 mM KCl, 1 mM CaCl2, 1 mM MgCl2, 10 mM Hepes, 5 mM alanine, pH 7.5) with or without compound for 5 min. Then 30 μl of [^14C] glycine (101 mCi/mmol, obtained from Perkin Elmer) diluted in Uptake buffer was added to each well to give a final concentration of 5 μM. After incubation at room temperature for the desired time usually 1-2 h, sealed 96-well Cytostar plates were counted on a TopCount (Packard). Nonspecific uptake of [^14C] glycine was determined in the presence of 10 μM cold ALX-5407 (Sigma).
IC50 curves were generated from the raw data collected from the TopCount and fitted with a four-parameter logistic equation using in-house data analysis tool, Activity Base.

| Structure (SMILES) | IC50 |
| --- | --- |
| O=C(O)CN1CCC(N(c2ccccc2)c2cccc(C(F)(F)F)c2)CC1 [Cpd I-7, 2-(4-(phenyl(3-(trifluoromethyl)-phenyl)amino)piperidin-1-yl)-acetic acid] | 393 nM |
| O=C(O)CN1CCC(C(c2ccccc2)c2ccccc2)CC1 [Cpd I-8, 2-(4-benzhydrylpiperidin-1-yl)acetic acid] | 536 nM |
| O=C(O)CN1CCN(c2cccc3ccccc23)CC1 [Cpd I-9, 2-(4-naphth-1-ylpiperazin-1-yl)acetic acid] | > 10000 nM |
| O=C(O)CN1CCN(C2(c3ccccc3)CCCCC2)CC1 [Cpd I-13, 2-(4-(1-phenylcyclohexyl)piperazin-1-yl)acetic acid] | > 10000 nM |
| C[C@@H]1CN(C2(c3ccccc3)CCCCC2)CCN1CC(=O)O [Cpd I-14, (R)-2-(2-methyl-4-(1-phenyl-cyclohexyl)-piperazin-1-yl)acetic acid] | 1530 nM |
| O=C(O)CN1CCC(C(c2ccccc2)c2ccccc2C(F)(F)F)CC1 (centres unmarked) [Cpd I-16, 2-(4-(phenyl(2-(trifluoromethyl)-phenyl)-methyl)piperidin-1-yl)acetic acid] | 3520 nM |
| O=C(O)CN1CCC(N(c2ccccc2)c2ccc(C(F)(F)F)cc2)CC1 [Cpd I-22, 2-(4-(phenyl(4-(trifluoromethyl)phenyl)-amino)piperidin-1-yl)acetic acid] | 129 nM |
| C[C@@H]1CN(C2(c3ccc(Cl)cc3)CCCCC2)CCN1CC(=O)O [Cpd I-26, (R)-2-(4-(1-(4-chlorophenyl)cyclohexyl)-2-methylpiperazin-1-yl)acetic acid] | 101 nM |
| O=C(O)CN1CCCC(C(c2ccccc2)c2ccc(C(F)(F)F)cc2)C1 (centres unmarked) [Cpd II-1, 2-(3-(phenyl(4-(trifluoromethyl)-phenyl)methyl)piperidin-1-yl)acetic acid] | 562 nM |
| O=C(O)CN1CCC(N(c2ccccc2)c2cccc(-c3cccnc3)c2)C1 (centres unmarked) [Cpd II-10, 2-(3-(phenyl(3-(pyridin-3-yl)-phenyl)amino)pyrrolidin-1-yl)acetic acid] | 14 nM |

Results, then the molecule that gave them:

| IC50 | Structure (SMILES) |
| --- | --- |
| 258 nM | C[C@@H]1CN(C2CCCCc3ccccc32)CCN1CC(=O)O (stereo partly drawn) [Cpd I-1, 2-((R)-2-methyl-4-(6,7,8,9-tetrahydro-5H-benzo[7]annulen-5-yl)-piperazin-1-yl)acetic acid] |
| 1010 nM | C[C@@H]1CN(C2CCc3ccc(Br)cc32)CCN1CC(=O)O (stereo partly drawn) [Cpd I-3, 2-((R)-4-(6-bromo-2,3-dihydro-1H-inden-1-yl)-2-methyl-piperazin-1-yl)acetic acid] |
| 147 nM | C[C@@H]1CN(C2c3ccccc3CCc3ccccc32)CCN1CC(=O)O [Cpd I-5] |
| 1130 nM | C[C@@H]1CN(C2CCCCC2c2ccccc2)CCN1CC(=O)O (stereo partly drawn) [Cpd I-6, 2-((R)-2-methyl-4-(2-phenylcyclohexyl)-piperazin-1-yl)acetic acid dihydrochloride] |
| 953 nM | C[C@@H]1CN(c2cccc3ccccc23)CCN1CC(=O)O [Cpd I-10, (R)-2-(2-methyl-4-naphth-1-ylpiperazin-1-yl)acetic acid] |
| > 10000 nM | O=C(O)CN1CCN(c2c3ccccc3cc3ccccc23)CC1 [Cpd I-11, 2-(4-anthracen-9-ylpiperazin-1-yl)acetic acid] |
| 687 nM | C[C@@H]1CN(c2c3ccccc3cc3ccccc23)CCN1CC(=O)O [Cpd I-12, (R)-2-(4-anthracen-9-yl-2-methyl-piperazin-1-yl)acetic acid] |
| 52 nM | CC1CC(C(c2ccccc2)c2ccccc2)CCN1CC(=O)O (centres unmarked) [Cpd I-15, 2-(4-benzhydryl-2-methyl-piperidin-1-yl)acetic acid] |
| > 10000 nM | O=C(O)CN1CCC(C2c3ccccc3-c3ccccc32)CC1 [Cpd I-28, 2-(4-(9H-fluoren-9-yl)piperidin-1-yl)acetic acid] |
| 5320 nM | O=C(O)CN1CCC(C2c3ccccc3Oc3ccccc32)CC1 [Cpd I-30, 2-(4-(9H-xanthen-9-yl)piperidin-1-yl)acetic acid] |
| 296 nM | O=C(O)CN1CCCC(N(c2ccccc2)c2ccc(C(F)(F)F)cc2)C1 (centres unmarked) [Cpd II-3, 2-(3-(phenyl(4-(trifluoromethyl)-phenyl)amino)piperidin-1-yl)acetic acid] |
| > 2000 nM | O=C(O)CN1CCCC(N(c2ccccc2)c2cccc(C(F)(F)F)c2)C1 (centres unmarked) [Cpd II-4, 2-(3-(phenyl(3-(trifluoromethyl)-phenyl)amino)piperidin-1-yl)acetic acid] |
| 18 nM | O=C(O)CN1CCC(N(c2ccccc2)c2ccc(C(F)(F)F)cc2)C1 (centres unmarked) [Cpd II-5, 2-(3-(phenyl(4-(trifluoromethyl)-phenyl)amino)pyrrolidin-1-yl)acetic acid] |
